pEC50: −log10 of the molar value. Active and inactive are the calls of the source. No cut-off for these calls is given here.
Tests used:
Rattus norvegicus [1] = test: Diuretic activity in Crl:CD(SD) rat assessed as increase in urine volume at 10 ug/kg, iv administered as bolus dose measured up to 60 mins; format: functional, organism-based
Rattus norvegicus [2] = test: In vivo agonist activity at NPR-A in Crl:CD(SD) rat assessed as increase in cGMP accumulation in kidney at 1 ug/kg/min, iv administered as infusion over 30 mins by radioimmunoassay; format: functional, organism-based
[3] = target: T1, Atrial natriuretic peptide receptor 1 (Homo sapiens, UniProt P16066); test: Agonist activity at human NPR-A expressed in CHO cells assessed as increase in cGMP accumulation after 30 mins by radioimmunoassay; format: cell-based
T1 sequence (P16066 whole entry): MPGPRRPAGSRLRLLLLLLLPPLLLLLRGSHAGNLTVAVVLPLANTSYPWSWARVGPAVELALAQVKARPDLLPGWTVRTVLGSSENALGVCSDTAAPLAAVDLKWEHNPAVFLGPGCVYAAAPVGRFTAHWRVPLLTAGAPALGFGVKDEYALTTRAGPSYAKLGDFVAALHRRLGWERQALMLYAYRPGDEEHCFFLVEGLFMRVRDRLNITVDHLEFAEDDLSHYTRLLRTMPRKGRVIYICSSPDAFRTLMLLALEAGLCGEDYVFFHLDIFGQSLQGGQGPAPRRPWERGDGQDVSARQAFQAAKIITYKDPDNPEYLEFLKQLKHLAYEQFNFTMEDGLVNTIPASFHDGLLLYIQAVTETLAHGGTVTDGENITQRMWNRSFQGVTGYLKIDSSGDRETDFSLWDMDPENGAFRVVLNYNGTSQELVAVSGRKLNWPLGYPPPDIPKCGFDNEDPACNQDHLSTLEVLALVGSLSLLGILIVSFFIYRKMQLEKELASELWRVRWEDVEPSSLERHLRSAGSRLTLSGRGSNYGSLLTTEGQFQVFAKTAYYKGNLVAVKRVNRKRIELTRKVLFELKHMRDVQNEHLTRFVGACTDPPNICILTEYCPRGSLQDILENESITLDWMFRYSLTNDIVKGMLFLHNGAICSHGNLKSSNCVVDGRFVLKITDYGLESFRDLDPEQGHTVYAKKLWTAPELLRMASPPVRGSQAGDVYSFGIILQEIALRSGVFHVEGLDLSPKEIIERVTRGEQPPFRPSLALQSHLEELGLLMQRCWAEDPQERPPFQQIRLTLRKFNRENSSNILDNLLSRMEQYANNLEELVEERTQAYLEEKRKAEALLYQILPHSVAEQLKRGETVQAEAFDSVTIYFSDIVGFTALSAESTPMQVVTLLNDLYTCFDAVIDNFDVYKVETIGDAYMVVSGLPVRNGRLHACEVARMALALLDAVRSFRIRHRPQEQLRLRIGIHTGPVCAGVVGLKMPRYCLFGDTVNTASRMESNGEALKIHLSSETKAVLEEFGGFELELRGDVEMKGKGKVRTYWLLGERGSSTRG

Rattus norvegicus [4] = test: Diuretic activity in iv dosed Crl:CD(SD) rat assessed as increase in urine volume administered as bolus dose measured up to 60 mins; format: functional, organism-based
[5] = target: T2, Atrial natriuretic peptide receptor 1 (Rattus norvegicus, UniProt P18910); test: Agonist activity at rat NPR-A expressed in CHO cells assessed as increase in cGMP accumulation after 15 mins by fluorescent assay; format: cell-based
T2 sequence (P18910 whole entry): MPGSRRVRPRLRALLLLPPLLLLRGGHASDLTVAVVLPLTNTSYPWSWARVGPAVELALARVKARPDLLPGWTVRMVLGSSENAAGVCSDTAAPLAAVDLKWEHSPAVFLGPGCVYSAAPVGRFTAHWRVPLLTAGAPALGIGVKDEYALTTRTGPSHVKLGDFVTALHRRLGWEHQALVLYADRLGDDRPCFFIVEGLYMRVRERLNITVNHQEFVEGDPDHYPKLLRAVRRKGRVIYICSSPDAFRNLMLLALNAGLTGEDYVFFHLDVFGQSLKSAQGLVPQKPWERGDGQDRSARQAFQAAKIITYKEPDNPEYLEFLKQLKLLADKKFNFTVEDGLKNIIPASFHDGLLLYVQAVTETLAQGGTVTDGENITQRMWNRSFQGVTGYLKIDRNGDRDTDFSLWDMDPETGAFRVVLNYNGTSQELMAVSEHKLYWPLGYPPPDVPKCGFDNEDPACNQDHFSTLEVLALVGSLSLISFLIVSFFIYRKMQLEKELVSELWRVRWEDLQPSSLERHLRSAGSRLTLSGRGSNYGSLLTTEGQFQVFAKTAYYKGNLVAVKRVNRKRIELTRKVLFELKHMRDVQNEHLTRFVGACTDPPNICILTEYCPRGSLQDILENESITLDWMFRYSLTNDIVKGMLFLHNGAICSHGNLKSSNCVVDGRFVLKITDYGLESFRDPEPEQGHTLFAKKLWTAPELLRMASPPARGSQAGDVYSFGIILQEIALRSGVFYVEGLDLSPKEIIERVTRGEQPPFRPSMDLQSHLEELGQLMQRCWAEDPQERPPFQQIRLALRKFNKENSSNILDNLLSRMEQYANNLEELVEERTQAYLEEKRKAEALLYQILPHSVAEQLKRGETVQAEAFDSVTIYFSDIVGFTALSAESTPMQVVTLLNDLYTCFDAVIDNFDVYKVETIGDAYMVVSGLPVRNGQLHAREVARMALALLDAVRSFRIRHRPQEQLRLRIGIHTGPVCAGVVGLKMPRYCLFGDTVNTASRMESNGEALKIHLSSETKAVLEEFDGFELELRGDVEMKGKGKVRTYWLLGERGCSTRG

Rattus norvegicus [6] = test: In vivo agonist activity at NPR-A in Crl:CD(SD) rat assessed as increase in cGMP accumulation in lung at 30 ug/kg/min, iv; format: functional, organism-based
Rattus norvegicus [7] = test: In vivo agonist activity at NPR-A in iv dosed Crl:CD(SD) rat assessed as increase in cGMP accumulation in kidney administered as infusion over 30 mins by radioimmunoassay; format: functional, organism-based

With `CC[C@H](C)[C@@H]1NC(=O)[C@H](CCCNC(=N)N)NC(=O)[C@H](CC(=O)O)NC(=O)[C@H](CCSC)NC(=O)[C@H](CCCNC(=N)N)NC(=O)CNC(=O)CNC(=O)[C@H](Cc2ccccc2)NC(=O)[C@@H](NC(=O)[C@H](CO)NC(=O)[C@H](CO)NC(=O)[C@H](CCCNC(=N)N)NC(=O)[C@H](CCCNC(=N)N)NC(=O)[C@H](CC(C)C)NC(=O)[C@@H](N)CO)CSSC[C@@H](C(=O)N[C@@H](CC(N)=O)C(=O)N[C@@H](CO)C(=O)N[C@@H](Cc2ccccc2)C(=O)N[C@@H](CCCNC(=N)N)C(=O)N[C@@H](Cc2ccc(O)cc2)C(=O)O)NC(=O)CNC(=O)[C@H](CC(C)C)NC(=O)CNC(=O)[C@H](CO)NC(=O)[C@H](CCC(N)=O)NC(=O)[C@H](C)NC(=O)CNC1=O` the Activity (Rattus norvegicus [1]) was “Active” and the Activity (Rattus norvegicus [2]) was “Active”.

With `CC(C)CC1C(=O)N=C(N)N1c1nc(NC(=N)N)nc(Nc2ccccc2)n1` (configuration not stated) the pEC50 [3] was 5.40.

Compound `CC(C)CC1C(=O)N=C(N)N1c1nc(NC(=N)N)nc(Nc2ccc(Nc3nc(NC(=N)N)nc(N4C(N)=NC(=O)C4C)n3)cc2)n1` (configuration not stated) has a pEC50 [3] of 7.72.

In the case of `C/N=C(\N(C)C)N(C)c1nc(Nc2ccccc2)nc(N2C(N)=NC(=O)C2CC(C)C)n1` (configuration not stated), the pEC50 [3] was 4.19.

Compound `CC(C)CC1C(=O)N=C(N)N1c1nc(NC(=N)N)nc(Nc2ccc(Nc3nc(NC(=N)N)nc(N4C(N)=NC(=O)C4CC(C)C)n3)cc2)n1` (configuration not stated) has a pEC50 [3] of 8.24.

In the case of `CC1C(=O)N=C(N)N1c1nc(NC(=N)N)nc(Nc2ccc(Nc3nc(NC(=N)N)nc(N4C(N)=NC(=O)C4C)n3)cc2)n1` (configuration not stated), the pEC50 [3] was less than 5.00.

In the case of `CC(C)CC1C(=O)N=C(N)N1c1nc(NC(=N)N)nc(NC2CCC(Nc3nc(NC(=N)N)nc(N4C(N)=NC(=O)C4CC(C)C)n3)CC2)n1` (configuration not stated), the Activity (Rattus norvegicus [4]) was “Dose-dependent effect”, the pEC50 [5] was 7.12 and the Activity (Rattus norvegicus [6]) was “Active”. The pEC50 [3] was 8.09 and the Activity (Rattus norvegicus [7]) was “Dose-dependent effect”.

In the case of `CCCCC1C(=O)N=C(N)N1c1nc(NC(=N)N)nc(Nc2ccc(Nc3nc(NC(=N)N)nc(N4C(N)=NC(=O)C4CCCC)n3)cc2)n1` (configuration not stated), the Activity (Rattus norvegicus [4]) was “Dose-dependent effect”, the pEC50 [5] was 7.64 and the Activity (Rattus norvegicus [6]) was “Active”. For the same compound, the pEC50 [3] was 8.70 and the Activity (Rattus norvegicus [7]) was “Dose-dependent effect”.

— ChEMBL document CHEMBL3992545, “Discovery and dimeric approach of novel Natriuretic Peptide Receptor A (NPR-A) agonists” (Bioorg Med Chem, 2017)
